The results in this text go back to patent publication US11524943B1 (Vivace Therapeutics, Inc., priority 2017, dated 2022).

This assay deals with HEK293T cells stably transfected with 8×TBD luciferase reporter and pRLTK. The assay is described as follows: YAP Reporter Assay (8×TBD firefly luciferase reporter). Type of assay: cell-based. The settings on record: Homo sapiens, HEK-293T; HEK293T 8×TBD reporter cells, 24-hr incubation, top concentration 3 μM, 1:3 dilution, 10 points. The method, then:
HEK293T cells stably transfected with 8×TBD luciferase reporter and pRLTK in 384-well plates were treated with the test compounds, starting from 3 μM (final concentration in assay plate), 1:3 dilution, and 10 points in quadruplicates. Post 24-hr incubation with compounds at 37° C. and 5% CO2, cells were lysed and 8×TBD-driven firefly luciferase and control TK-driven renilla luciferase activities were measured using Promega Dual-Luciferase Reporter Assay System.
Reagents: The reagents used for this study are: DMEM: Invitrogen #11960077, Dual-Glo Luciferase Assay System: Promega-E2980, Puromycin Dihydrochloride: Invitrogen-A1113803, 384-well plate: PerkinElmer-6007480, L-GLUTAMINE: Invitrogen-25030164, Hygromycin B: Invitrogen-10687010, and Penicillin-Streptomycin: Merk-TMS-AB2-C
Media: The media used for this assay were: Culture Medium: DMEM+1 ug/mL puromycin+200 ug/mL hygromycin (with 10% FBS+1 mM L-glutamine); and Assay Medium: DMEM (with 10% FBS+1 mM L-glutamine+1×P/S).
Cell Plating: The appropriate media was warmed at 37° C. by water bath: Culture Medium, Assay Medium, 1*D-PBS, 0.05% trypsin-EDTA. The cells were trypsinized after removing all media, then washed with 1* sterile D-PBS and then with 2 ml 0.05% trypsin-EDTA. The cells were then incubated at RT for one minute. Then 10 ml/75 cm2 flask Assay Medium was added to each flask. Using a 10 ml pipette, the cells were then gently resuspended in the media, until the clumps completely disappeared. The cells were then transferred into 50 ml centrifuge tubes and were centrifuged at 800 rpm for 5 mins. The medium was removed and the cells were resuspended with Assay Medium. An aliquot of cells was used to count the cell density (cells/ml). The cell suspension was then diluted with Assay Medium to a concentration of 6×10^4 cells/ml. 50 ul cells suspension was then plated to 384-well plate (PerkinElmer-6007480), 3×10^3 cells/well and the cells were incubated in an incubator at 37° C., 5% CO2.
Compound Treatment: In the afternoon (incubation of the plate with 3-4 hrs), the test compounds were added by Echo, starting from 3 uM (final concentration in the assay plate), 1:3 dilution, 10 points, quadruplicates. The plate was placed at 37° C., 5% CO2 incubator for 24 hrs.
Detection: The Dual-Glo Luciferase Reagent was prepared by transferring the contents of one bottle of Dual-Glo Luciferase Buffer to one bottle of Dual-Glo Luciferase Substrate to create the Dual-Glo Luciferase Reagent. Mixing was performed by inversion until the substrate was thoroughly dissolved. After mixing, the reagent was aliquoted into 15 ml tubes. In the afternoon (24 hrs post compound treatment), the DMEM+ medium in the 384 well plates were aspirated by Microplate Washer.
Measuring firefly luciferase activity: 20 ul Dual-Glo Luciferase Reagent was added to the 384-well plates. The plates were protected from light to prevent interference with the assay. The plates were shaken for 1 min followed centrifuging plates at 1000 rpm for 30 seconds. After waiting at least 10 minutes, the firefly luminescence was measured by Envision.
Measuring renilla luciferase activity: 20 ul Stop-Glo Reagent was added to the 384-well plates. The plates were shaken for 1 min and then centrifuged at 1000 rpm for 30 seconds. After waiting at least 10 minutes, the renilla luminescence was measured by Envision.
Compound IC50 and maximum inhibition on the firefly luciferase and renilla luciferase activities were reported separately.

Bounds are passed on as bounds.

For `O=C(O)c1ccc(Nc2ccc(C(F)(F)F)cc2)c(-c2ccc(F)cn2)c1` [Compound 51, 3-(5-fluoro-2-pyridyl)-4-[4-(trifluoromethyl)anilino] benzoic acid], the IC50 was at most 100 nM. `COC(=O)c1ccc(Nc2ccc(C(F)(F)F)cc2)c(-c2nnn(Cc3ccccc3F)n2)c1` [Compound 24, methyl 3-(2-(2-fluorobenzyl)-2H-tetrazol-5-yl)-4-((4-(trifluoromethyl)phenyl)amino) benzoate] displayed an IC50 of 100 to 1000 nM. Turning to `CC(C)NC(=O)c1ccc(Nc2ccc(C(F)(F)F)cc2)c(-c2ccnc(N)c2)c1` [Compound 29, 3-(2-aminopyridin-4-yl)-N-isopropyl-4-((4-(trifluoromethyl)phenyl)amino) benzamide], the IC50 is 100 to 1000 nM.

As to `COC(=O)c1ccc(Nc2ccc(C(F)(F)F)cc2)c(-c2nnc(C3CC3)o2)c1` [Compound 53, methyl 3-(5-cyclopropyl-1,3,4-oxadiazol-2-yl)-4-((4-(trifluoromethyl)phenyl)amino)benzoate], the IC50 was at most 100 nM.

In the case of `Cn1nnc(-c2cc(C(=O)O)ccc2Nc2cccc(C(F)(F)F)c2)n1` [Compound 4, 3-(2-methyl-2H-tetrazol-5-yl)-4-((3-(trifluoromethyl)phenyl)amino) benzoic acid], the IC50 was at most 100 nM. As for `CC(C)NC(=O)c1ccc(Nc2ccc(C(F)(F)F)cc2)c(-c2cn(C)cn2)c1` [Compound 36, N-Isopropyl-3-(-methylimidazol-4-yl)-4-[4-(trifluoromethyl)anilino] benzamide], the IC50 was at most 100 nM. With `CNC(=O)c1ccc(Nc2cccc(C(F)(F)F)c2)c(-c2nnn(C)n2)c1` [Compound 5, N-methyl-3-(2-methyl-2H-tetrazol-5-yl)-4-((3-(trifluoromethyl)phenyl)amino) benzamide] the figure was at most 100 nM; with `COC(=O)c1ccc(Nc2ccc(C(F)(F)F)cc2)c(-c2nnn(C)n2)c1` [Compound 1, methyl 3-(2-methyl-2H-tetrazol-5-yl)-4-((4-(trifluoromethyl)phenyl)amino)benzoate], at most 100 nM. The compound `Cn1cnc(-c2cc(C(=O)NC3CC3)ccc2Nc2ccc(C(F)(F)F)cc2)c1` [Compound 37, N-cyclopropyl-3-(1-methylimidazol-4-yl)-4-[4 (trifluoromethyl)anilino] benzamide] came in with an IC50 of at most 100 nM. Consider `Cn1nnc(-c2cc(C(=O)O)ccc2Nc2ccc(C(F)(F)F)cc2)n1` [Compound 3, 3-(2-methyl-2H-tetrazol-5-yl)-4-((4-(trifluoromethyl)phenyl)amino) benzoic acid], for which the IC50 is at most 100 nM. With `O=C(O)c1ccc(Nc2ccc(C(F)(F)F)cc2)c(-c2ncco2)c1` [Compound 61, 3-(oxazol-2-yl)-4-((4-(trifluoromethyl)phenyl)amino) benzoic acid] the figure was at most 100 nM; with `CC(C)NC(=O)c1ccc(Nc2cccc(C(F)(F)F)c2)c(-c2nnn(C)n2)c1` [Compound 21, N-isopropyl-3-(2-methyl-2H-tetrazol-5-yl)-4-((3-(trifluoromethyl)phenyl)amino) benzamide], at most 100 nM.

One may read the IC50 as the point on the concentration scale where inhibition reaches its midpoint. The low end stands for inhibition by little substance, the high end for a need for much substance.
